Reference: patent US12643875B2, “Antibacterial compounds” (The Penn State Research Foundation, priority 2020, dated 2026)
In brackets after ≈: the same amount, converted by molar mass. Like-named read-outs stand apart in the source and are kept apart here.

Experiments:
bacteria = assay: Bacterial growth inhibition, broth microdilution (CLSI M07-A10); type: cell-based; conditions: for IC50: growth inhibition
Text: Assay: Broth microdilution by the method of: Clinical and Laboratory Standards Institute, Ed., Methods for dilution antimicrobial susceptibility tests for bacteria that grow aerobically: M07-A10; approved standard (Committee for Clinical Laboratory Standards, Wayne, PA, 10. ed., 2015), Documents/Clinical and Laboratory Standards Institute.

[1] = tested on: σ^E-mediated transcription; assay: σ^E-mediated transcription inhibition, E. coli reporter assay; type: cell-based; conditions: Escherichia coli
Description: The selected exemplified compounds were tested for inhibition of σ^E-mediated transcription using an E. coli reporter assay according to the protocol described in U.S. Pat. No. 8,962,550, which is incorporated herein by reference.

[2] = tested on: HeLa (cervical cancer cells); assay: Cytotoxicity, propidium iodide fluorescence, HeLa cells; type: cell-based, Human; set-up: key: % cytotoxicity relative to positive control (100% cell lysis); conditions: 24 h, relative to positive control (100% cell lysis)
Description: (§1) Assay: HUVEC (Human Umbilical Vein Endothelial Cells) and HeLa (cervical cancer cells) were seeded into 96-well culture plates at a density of 1.5×10^5 cells/ml in endothelial cell or DMEM growth medium, supplemented with 10% fetal bovine serum and no antibiotic. Cells were cultured for 24 h before assay setup. Compounds were diluted in the corresponding growth medium and tested in triplicate at 10× and 20× the minimum bacterial growth inhibitory concentrations. Growth media in the 96-well plate was aspirated off and replaced with media containing the test compounds or DMSO (0.5%, vol/vol). The plates were incubated at 37° C. in a 5% CO2 incubator for 24 h. A positive control sample was prepared by replacing media in designated wells with a solution containing a cell lysis reagent. Propidium iodide was then added at 5 μM/well and the plate was incubated for 10 minutes at room temperature. Fluorescence was then recorded using a SpectraMax i3 (Molecular Devices) at λex 535 nm/λem 617 nm. Cytotoxicity was determined by quantifying the fluorescence values for each compound relative to the positive control (100% cell lysis). For selected exemplified compounds, cytotoxicity against HeLa and HuVEC cells was measured at 10× and 20×MIC.

[3] = tested on: HUVEC (Human Umbilical Vein Endothelial Cells); assay: Cytotoxicity, propidium iodide fluorescence, HuVEC cells; type: cell-based; set-up: key: % cytotoxicity relative to positive control (100% cell lysis); conditions: 24 h, relative to positive control (100% cell lysis)
Description: as §1

Plasma binding = type: in vitro ADME; conditions: for free compound: serum and plasma binding
Serum binding = type: in vitro ADME
[4] = Solubility in growth medium of the transcription assay; type: physicochemical; set-up: key: *: poor solubility in test medium
CYP [5] = tested on: CYP
CYP (isoform not given) = assay: HLM CYP inhibition; conditions: human, human liver microsomes
CYP [6] = assay: HLM CYP inhibition
[7] = Stability in human liver microsomes (intrinsic clearance)

Cc1cc(F)ccc1-c1cccc(Nc2ccncc2)n1 [Compound 2170]
MIC (bacteria): 14 µg/mL (≈ 50.1 µM)
IC50 (bacteria): 6.8 µg/mL (≈ 24.3 µM)

Cc1cc(F)ccc1-c1cccc(Nc2ccccc2)n1 [Compound 39704]
MIC (bacteria): 1.7 to 3.5 µg/mL (≈ 6.11 to 12.6 µM)
IC50 (bacteria): 0.9 to 2.8 µg/mL (≈ 3.23 to 10.1 µM)
IC50 [1]: 11 µg/mL (≈ 39.5 µM)
Cytotoxicity at 10× MIC HeLa [2]: 11
Cytotoxicity at 20× MIC HeLa [2]: 11
Cytotoxicity at 10× MIC HuVEC [3]: 15
Cytotoxicity at 20× MIC HuVEC [3]: 21
% plasma binding (Plasma binding): 99.9%
free compound (Plasma binding): no detectable free compound
% serum binding (Serum binding): 100%
solubility in test medium [4]: *
Human Liver Microsomes Intrinsic Clearance (CLint): 5.38 mL/min/g liver
IC50 for CYP inhibition over the MIC (CYP [5]): more than 5 ×
IC50 (CYP (isoform not given)): 13.5 µM

Cc1cc(F)ccc1-c1cccc(NS(=O)(=O)c2ccccc2)n1 [Compound 39705]
MIC (bacteria): 34 µg/mL (≈ 99.3 µM)
IC50 (bacteria): 16 µg/mL (≈ 46.7 µM)

Cc1cc([N+](=O)[O-])ccc1-c1cccc(Nc2ccncc2)n1 [Compound 39709]
MIC (bacteria): 117 µg/mL (≈ 382 µM)

c1cc(Nc2ccncc2)nc(C2CCCCC2)c1 [Compound 39710]
MIC (bacteria): 51 µg/mL (≈ 201 µM)

c1ccc(-c2cccc(Nc3ccncc3)n2)cc1 [Compound 39711]
MIC (bacteria): 6.2 µg/mL (≈ 25.1 µM)
IC50 (bacteria): 3.7 µg/mL (≈ 15 µM)

Cc1cc(F)ccc1-c1cc(Nc2ccccc2)ccn1 [Compound 39712]
MIC (bacteria): 21 µg/mL (≈ 75.5 µM)

Cc1cc(F)ccc1-c1cccc(NS(=O)(=O)c2cccc3c(N(C)C)cccc23)n1 [Compound 39713]
MIC (bacteria): 87 µg/mL (≈ 200 µM)

Cc1cc(F)ccc1-c1cccc(Nc2ccc(N=[N+]=[N-])cc2)n1 [Compound 39714]
MIC (bacteria): 64 µg/mL (≈ 200 µM)

Cc1cc(F)ccc1-c1cccc(Nc2ccc(C#C[Si](C)(C)C)cc2)n1 [Compound 39715]
MIC (bacteria): 75 µg/mL (≈ 200 µM)

Cc1cc(F)ccc1-c1cc(NC(=O)c2ccco2)ccn1 [Compound 39717]
MIC (bacteria): 50 µg/mL (≈ 169 µM)

c1ccc(COc2ccc(-c3cccc(Nc4ccncc4)n3)cc2)cc1 [Compound 39718]
MIC (bacteria): 35 µg/mL (≈ 99 µM)

Cc1cc(F)ccc1-c1cccc(NC(=O)c2cccc(Cl)c2)n1 [Compound 39720]
MIC (bacteria): 4.3 µg/mL (≈ 12.6 µM)
IC50 (bacteria): 2.4 µg/mL (≈ 7.04 µM)
IC50 [1]: ~34.1 µg/mL (≈ 100 µM)
Cytotoxicity at 10× MIC HeLa [2]: 8
Cytotoxicity at 20× MIC HeLa [2]: 8
Cytotoxicity at 10× MIC HuVEC [3]: 10
Cytotoxicity at 20× MIC HuVEC [3]: 10
solubility in test medium [4]: *
Human Liver Microsomes Intrinsic Clearance (CLint): 1.51 mL/min/g liver

Cc1cc(F)ccc1-c1cccc(NC(=O)c2ccccc2)n1 [Compound 39721]
MIC (bacteria): 20 µg/mL (≈ 65.3 µM)

Cc1cc(F)ccc1-c1cccc(Nc2ccc([N+](=O)[O-])c3nonc23)n1 [Compound 39722]
MIC (bacteria): 73 µg/mL (≈ 200 µM)

Cc1cc(F)ccc1-c1cccc(-c2cn(-c3ccncc3)nn2)c1 [Compound 39724]
MIC (bacteria): 3.3 to 4.1 µg/mL (≈ 9.99 to 12.4 µM)
IC50 (bacteria): 1.6 to 2.3 µg/mL (≈ 4.84 to 6.96 µM)
IC50 [1]: 6.6 µg/mL (≈ 20 µM)
Cytotoxicity at 10× MIC HeLa [2]: 11
Cytotoxicity at 20× MIC HeLa [2]: 14
Cytotoxicity at 10× MIC HuVEC [3]: 16
Cytotoxicity at 20× MIC HuVEC [3]: 19
% plasma binding (Plasma binding): 99.5%
% serum binding (Serum binding): 94.6%
Human Liver Microsomes Intrinsic Clearance (CLint): 0.37 mL/min/g liver
IC50 (CYP (isoform not given)): 3.55 µM

Cc1cc(F)ccc1-c1ccc(-c2cn(-c3ccncc3)nn2)cc1 [Compound 39730]
MIC (bacteria): 66 µg/mL (≈ 200 µM)

Cc1cc(F)ccc1-c1cccc(NC(=O)c2ccccc2)c1 [Compound 39731]
MIC (bacteria): 7.6 µg/mL (≈ 24.9 µM)
IC50 (bacteria): 1.6 to 3.4 µg/mL (≈ 5.24 to 11.1 µM)
IC50 [1]: ~60 µg/mL (≈ 196 µM)
Cytotoxicity at 10× MIC HeLa [2]: 8
Cytotoxicity at 20× MIC HeLa [2]: 10
Cytotoxicity at 10× MIC HuVEC [3]: 14
Cytotoxicity at 20× MIC HuVEC [3]: 14
% plasma binding (Plasma binding): 99.8%
% serum binding (Serum binding): 99.7%
solubility in test medium [4]: *
Human Liver Microsomes Intrinsic Clearance (CLint): 2.12 mL/min/g liver
IC50 (CYP (isoform not given)): > 33 µM
inhibition of CYP (CYP [6]): no detectable inhibition

Cc1cc(F)ccc1-c1cccc(NC(=O)c2cccc(Cl)c2)c1 [Compound 39732]
MIC (bacteria): 8.5 µg/mL (≈ 25 µM)
IC50 (bacteria): 5.9 µg/mL (≈ 17.4 µM)

Cc1cc(F)ccc1-c1cccc(NC(=O)c2ccco2)c1 [Compound 39733]
MIC (bacteria): 29 µg/mL (≈ 98.2 µM)
IC50 (bacteria): 16 µg/mL (≈ 54.2 µM)

Cc1cc(F)ccc1-c1cccc(Nc2ccc(S(C)(=O)=O)cc2)c1 [Compound 39734]
MIC (bacteria): 28 µg/mL (≈ 78.8 µM)
IC50 (bacteria): 22 µg/mL (≈ 61.9 µM)

Cc1cc(F)ccc1-c1cccc(-c2cn(C3CCSCC3)nn2)c1 [Compound 39735]
MIC (bacteria): 35 µg/mL (≈ 99 µM)

Cc1cc(F)ccc1-c1cccc(-c2cn(-c3cccc4ncccc34)nn2)c1 [Compound 39739]
MIC (bacteria): 38 µg/mL (≈ 99.9 µM)

Cc1cc(F)ccc1-c1cccc(Nc2ccncc2)c1 [Compound 39744]
MIC (bacteria): 14 µg/mL (≈ 50.3 µM)

c1ccc(-c2cccc(-c3cn(-c4ccncc4)nn3)c2)cc1 [Compound 39748]
MIC (bacteria): 7.6 µg/mL (≈ 25.5 µM)
IC50 (bacteria): 2.6 µg/mL (≈ 8.71 µM)
IC50 [1]: 2.6 µg/mL (≈ 8.71 µM)
Cytotoxicity at 10× MIC HeLa [2]: 14
Cytotoxicity at 20× MIC HeLa [2]: 14
Cytotoxicity at 10× MIC HuVEC [3]: 15
Cytotoxicity at 20× MIC HuVEC [3]: 21
% plasma binding (Plasma binding): 99.7%
% serum binding (Serum binding): 99.7%
Human Liver Microsomes Intrinsic Clearance (CLint): 1.28 mL/min/g liver
IC50 (CYP (isoform not given)): 1.48 µM

O=C(Nc1cccc(-c2ccccc2)c1)c1cccc(C(F)(F)F)c1 [Compound 39751]
MIC (bacteria): 8.5 µg/mL (≈ 24.9 µM)
IC50 (bacteria): 4.6 µg/mL (≈ 13.5 µM)
IC50 [1]: 4.3 µg/mL (≈ 12.6 µM)
Cytotoxicity at 10× MIC HeLa [2]: 9
Cytotoxicity at 20× MIC HeLa [2]: 7
Cytotoxicity at 10× MIC HuVEC [3]: 17
Cytotoxicity at 20× MIC HuVEC [3]: 14
% plasma binding (Plasma binding): 99.9%
free compound (Plasma binding): no detectable free compound
% serum binding (Serum binding): 99.9%
Human Liver Microsomes Intrinsic Clearance (CLint): 4.35 mL/min/g liver
IC50 (CYP (isoform not given)): > 33 µM
inhibition of CYP (CYP [6]): no detectable inhibition

Cc1ncc2n1-c1ccc(Cl)cc1C(c1ccccc1F)=NC2 [Midazolam control, Midazolam]
Human Liver Microsomes Intrinsic Clearance (CLint) [7]: 9.04 mL/min/g liver
